Results on 23 molecules are retold here after patent US20220024921A1, “1,3,4-OXADIAZOLONE COMPOUND AND PHARMACEUTICAL” (NIPPON SHINYAKU CO., LTD., priority 2018, published 2022).

For test [1], the target named is T1, PIM1 serine/threonine kinase (Homo sapiens, UniProt P11309).
T1 construct: purchased Carna Bioscience, Inc
In words: PIM1 serine/threonine kinase inhibitory effect. Type of test: biochemical. The note with it: PIM1 serine/threonine kinase activity; ATP 40 μM; 30° C., 30 minutes. An outline of the steps:
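Recombinant PIM1 (0.15 μg/ml final) with 0.5 μM biotinylated substrate and 40 μM ATP in pH 7.0 HEPES/MgCl2 buffer, 30 min at 30° C. Compound range was 0.01–10000 nM final, n=2. HTRF detection with streptavidin-XL665 and anti-phospho antibody-cryptate, 1 h; IC50 from non-linear regression of the 665/620 ratio.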

In test [2] the target is PIM1 transgenic cells (Ba/F3) (Homo sapiens, UniProt P11309). In words: Proliferation inhibitory effect on PIM1 transgenic cells. The note with it: proliferation inhibition, 72 hours, Cell Counting Kit-8, read-out: PIM1 IC50. Type of test: cell-based, mouse. An outline of the steps: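 Mouse Ba/F3 pro-B cells were retrovirally transduced with human PIM1 so that their proliferation depends on PIM1. Cells were treated with compound at 1–10000 nM final for 72 h, then read by CCK-8 (OD450−OD650). Inhibition was set against DMSO (0%) and no-cell blank (100%), and IC50 was obtained by two-parameter logistic regression.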

Structures can show the parent of a compound that is named as a salt.

T1 sequence (P11309 whole entry): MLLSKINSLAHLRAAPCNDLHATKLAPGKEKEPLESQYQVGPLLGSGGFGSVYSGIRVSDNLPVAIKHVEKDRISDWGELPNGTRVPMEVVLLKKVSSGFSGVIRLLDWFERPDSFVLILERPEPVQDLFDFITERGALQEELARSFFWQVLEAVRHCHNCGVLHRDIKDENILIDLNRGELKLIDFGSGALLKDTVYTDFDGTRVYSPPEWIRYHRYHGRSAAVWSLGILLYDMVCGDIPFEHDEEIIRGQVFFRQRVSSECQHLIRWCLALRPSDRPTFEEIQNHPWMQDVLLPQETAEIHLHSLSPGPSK
PIM1 transgenic cells (Ba/F3), sequence (P11309 whole entry, stated change not applied): as the sequence (P11309 whole entry) above

On to `NCCCCNc1cc(-c2n[nH]c(=O)o2)ccc1C(F)(F)F` [Example 1, 5-{3-[(4-aminobutyl)amino]-4-(trifluoromethyl)phenyl}-1,3,4-oxadiazol-2(3H)-one hydrochloride], for which the IC50 in test [1] was 15 nM. Moreover, the GI50 in test [2] worked out at 1900 nM.

For `CN[C@H]1CC[C@H]([C@H](C)Nc2cc(-c3n[nH]c(=O)o3)cc(F)c2C(F)(F)F)CC1` [Example 190, 5-[3-fluoro-5-({(1S)-1-[(1r,4S)-4-(methylamino)cyclohexyl]ethyl}amino)-4-(trifluoromethyl)phenyl]-1,3,4-oxadiazol-2(3H)-one hydrochloride], the IC50 in test [1] was found to be 1.9 nM. Besides, the GI50 in test [2] came to 41 nM.

As to `O=c1[nH]nc(-c2ccc(C(F)(F)F)c(NCCN3CCNCC3)c2)o1` [Example 65, 5-[3-{[2-(piperazin-1-yl)ethyl]amino}-4-(trifluoromethyl)phenyl]-1,3,4-oxadiazol-2(3H)-one dihydrochloride], the 50% inhibitory concentration (IC50) in test [1] came to 14 nM. In addition, the GI50 in test [2] worked out at 1000 nM.

`CCC(Nc1cc(-c2n[nH]c(=O)o2)ccc1C(F)(F)F)C1CCNCC1` (stereo not shown) [Example 56, 5-[3-{[1-(piperidin-4-yl)propyl]amino}-4-(trifluoromethyl)phenyl]-1,3,4-oxadiazol-2(3H)-one hydrochloride] displayed an IC50 in test [1] of 7 nM. In test [2], the GI50 came to 200 nM.

As to `C[C@H]1CN([C@@H](C)C2CCNCC2)c2cc(-c3n[nH]c(=O)o3)cc(F)c2O1` [Example 251, 5-{(2S)-8-fluoro-2-methyl-4-[(1S)-1-(piperidin-4-yl)ethyl]-3,4-dihydro-2H-1,4-benzoxazin-6-yl}-1,3,4-oxadiazol-2(3H)-one], the concentration for half-maximal inhibition (IC50) in test [1] worked out at 12 nM. In addition, the GI50 in test [2] stood at 260 nM.

Consider `C[C@@H]1CNCC[C@@H]1[C@H](C)N1CCC(=O)c2c(F)cc(-c3n[nH]c(=O)o3)cc21` [Example 245, 5-fluoro-1-{(1S)-1-[(3S,4S)-3-methylpiperidin-4-yl]ethyl}-7-(5-oxo-4,5-dihydro-1,3,4-oxadiazol-2-yl)-2,3-dihydroquinolin-4(1H)-one hydrochloride], for which half-maximal inhibition in test [1] (IC50) required 4.2 nM. In addition, the GI50 in test [2] came out at 3200 nM.

For `C[C@H](Nc1cc(-c2n[nH]c(=O)o2)ccc1C(F)(F)F)[C@H]1C[C@@H](N)C1(C)C` [Example 153, 5-[3-({(1S)-1-[(1S,3R)-3-amino-2,2-dimethylcyclobutyl]ethyl}amino)-4-(trifluoromethyl)phenyl]-1,3,4-oxadiazol-2(3H)-one hydrochloride], in test [1], the IC50 came out at 3.1 nM. Further, in test [2], the GI50 stood at 40 nM.

As to `O=c1[nH]nc(-c2cc(F)c(C(F)(F)F)c(N[C@@H](C(F)F)C3(F)CCNCC3)c2)o1` [Example 163, 5-[3-{[(1R)-2,2-difluoro-1-(4-fluoropiperidin-4-yl)ethyl]amino}-5-fluoro-4-(trifluoromethyl)phenyl]-1,3,4-oxadiazol-2(3H)-one hydrochloride], half-maximal inhibition in test [1] (IC50) required 2 nM. In test [2], the GI50 was 24 nM.

`CCc1c(F)cc(-c2n[nH]c(=O)o2)cc1N[C@@H](C)[C@H]1CC[C@H](N)CC1` [Example 231, 5-[3-({(1S)-1-[(1r,4S)-4-aminocyclohexyl]ethyl}amino)-4-ethyl-5-fluorophenyl]-1,3,4-oxadiazol-2(3H)-one hydrochloride]: the IC50 in test [1] is 3.4 nM. Moreover, in test [2], the GI50 amounted to 37 nM.

Regarding `CN[C@H]1C[C@@H]([C@H](C)Nc2cc(-c3n[nH]c(=O)o3)ccc2C(F)(F)F)C1` [Example 192, 5-[3-({(1S)-1-[(1s,3R)-3-(methylamino)cyclobutyl]ethyl}amino)-4-(trifluoromethyl)phenyl]-1,3,4-oxadiazol-2(3H)-one hydrochloride], the IC50 in test [1] was found to be 2.6 nM. In test [2], the GI50 was 47 nM.

For the molecule `O=c1[nH]nc(-c2ccc(C(F)(F)F)c(N[C@@H](C(F)F)C3CCNCC3)c2)o1` [Example 113, 5-[3-{[(1R)-2,2-difluoro-1-(piperidin-4-yl)ethyl]amino}-4-(trifluoromethyl)phenyl]-1,3,4-oxadiazol-2(3H)-one hydrochloride], the concentration for half-maximal inhibition (IC50) in test [1] worked out at 3.6 nM. Further, in test [2], the GI50 worked out at 81 nM.

For `C[C@H](Nc1cc(-c2n[nH]c(=O)o2)cc([N+](=O)[O-])c1Cl)C1CCNCC1` [Example 91, 5-(4-chloro-3-nitro-5-{[(1S)-1-(piperidin-4-yl)ethyl]amino}phenyl)-1,3,4-oxadiazol-2(3H)-one hydrochloride], in test [1], inhibition was half-maximal at 1.5 nM (IC50). In addition, the GI50 in test [2] turned out to be 210 nM.

On to `C[C@@H]1CNCC[C@@H]1[C@H](C)Nc1cc(-c2n[nH]c(=O)o2)ccc1OC(F)(F)F` [Example 218, 5-[3-({(1S)-1-[(3S,4S)-3-methylpiperidin-4-yl]ethyl}amino)-4-(trifluoromethoxy)phenyl]-1,3,4-oxadiazol-2(3H)-one], for which, in test [1], the IC50 was found to be 2.9 nM. For the same molecule, in test [2], the GI50 was 27 nM.

In test [1], `C[C@H](Nc1cc(-c2n[nH]c(=O)o2)ccc1C(F)(F)F)C1CC2(CNC2)C1` [Example 149, 5-[3-{[(1S)-1-(2-azaspiro[3.3]heptan-6-yl)ethyl]amino}-4-(trifluoromethyl)phenyl]-1,3,4-oxadiazol-2(3H)-one trifluoroacetate] displayed an IC50 of 9.1 nM. Moreover, in test [2], the GI50 was 380 nM.

As for `O=c1[nH]nc(-c2ccc(C(F)(F)F)c(NC[C@@H]3CCNC[C@H]3F)c2)o1` [Example 127, 5-[3-({[(3S,4S)-3-fluoropiperidin-4-yl]methyl}amino)-4-(trifluoromethyl)phenyl]-1,3,4-oxadiazol-2(3H)-one hydrochloride], half-maximal inhibition in test [1] (IC50) required 21 nM. For the same molecule, in test [2], the GI50 came out at 440 nM.

Regarding `O=c1[nH]nc(-c2cc(F)c(C(F)(F)F)c(N[C@@H](CF)C3CCNCC3)c2)o1` [Example 160, 5-[3-fluoro-5-{[(1R)-2-fluoro-1-(piperidin-4-yl)ethyl]amino}-4-(trifluoromethyl)phenyl]-1,3,4-oxadiazol-2(3H)-one hydrochloride], it took 1.2 nM to reach half-maximal inhibition in test [1] (IC50). In addition, in test [2], the GI50 is 40 nM.

Molecule `O=c1[nH]nc(-c2ccc(C(F)(F)F)c(N[C@@H](CF)C3CCNCC3)c2)o1` [Example 152, 5-[3-{[(1R)-2-fluoro-1-(piperidin-4-yl)ethyl]amino}-4-(trifluoromethyl)phenyl]-1,3,4-oxadiazol-2(3H)-one hydrochloride] gave an IC50 in test [1] of 3.3 nM. Also, the GI50 in test [2] turned out to be 57 nM.

The molecule `C[C@H](Nc1cc(-c2n[nH]c(=O)o2)ccc1C(F)(F)F)C12CCC(N)(CC1)C2` [Example 187, 5-[3-{[(1S)-1-(4-aminobicyclo[2.2.1]heptan-1-yl)ethyl]amino}-4-(trifluoromethyl)phenyl]-1,3,4-oxadiazol-2(3H)-one hydrochloride] gave an IC50 in test [1] of 8.7 nM. In test [2], the GI50 was determined as 110 nM.

Regarding `CN[C@H]1CC[C@H]([C@H](C)Nc2cc(-c3n[nH]c(=O)o3)cc(F)c2OC(F)(F)F)CC1` [Example 204, 5-[3-fluoro-5-({(1S)-1-[(1r,4S)-4-(methylamino)cyclohexyl]ethyl}amino)-4-(trifluoromethoxy)phenyl]-1,3,4-oxadiazol-2(3H)-one hydrochloride], the IC50 in test [1] was found to be 3.5 nM. Also, the GI50 in test [2] is 57 nM.

The molecule `C[C@H](Nc1cc(-c2n[nH]c(=O)o2)ccc1Br)C1CCNCC1` [Example 78, 5-(4-bromo-3-{[(1S)-1-(piperidin-4-yl)ethyl]amino}phenyl)-1,3,4-oxadiazol-2(3H)-one dihydrochloride] displayed a half-inhibitory concentration (IC50) in test [1] of 3.3 nM. Further, in test [2], the GI50 was 170 nM.

As for `C[C@H](Nc1cc(-c2n[nH]c(=O)o2)ccc1Cl)C1CCNCC1` [Example 77, 5-(4-chloro-3-{[(1S)-1-(piperidin-4-yl)ethyl]amino}phenyl)-1,3,4-oxadiazol-2(3H)-one dihydrochloride], in test [1], the IC50 is 5.8 nM. The GI50 in test [2] was found to be 180 nM.

`C[C@H](Nc1c(F)c(-c2n[nH]c(=O)o2)cc(Cl)c1Cl)C1CCNCC1` [Example 87, 5-(4,5-dichloro-2-fluoro-3-{[(1S)-1-(piperidin-4-yl)ethyl]amino}phenyl)-1,3,4-oxadiazol-2(3H)-one hydrochloride]: the IC50 in test [1] was 1.2 nM. For the same molecule, the GI50 in test [2] was 64 nM.

In turn, `C[C@H](Nc1cc(-c2n[nH]c(=O)o2)ccc1C(F)(F)F)[C@H]1[C@@H]2CC[C@H]1CNC2` [Example 156, 5-[3-({(1S)-1-[(1R,5S,8s)-3-azabicyclo[3.2.1]octan-8-yl]ethyl}amino)-4-(trifluoromethyl)phenyl]-1,3,4-oxadiazol-2(3H)-one hydrochloride] displayed an IC50 in test [1] of 14 nM. For the same molecule, the GI50 in test [2] turned out to be 160 nM.
